# According to US20260124122A1, “QUATERNARY AMMONIUM SILANE AQUEOUS HYDROGEL FORMULATIONS” (priority 2023, published 2026):
# What was measured:
# Type in all cases: physicochemical
# [1] = Hydrolysis of quaternary ammonium silane, Direct Infusion Mass Spectrometry, ESI+ mode
# Protocol: In this example, hydrolysis of Compound VII was evaluated in the mass-spectrometry study (Direct Infusion Mass Spectrometry, ESI+ mode).
# In a first experiment, Compound VII was dissolved in propylene glycol and diluted with acetonitrile to a final concentration of 10 μg/mL in the sample. […] Two minor peaks with m/z of 592 (Compound VII) and m/z of 534 (mono-hydrolyzed species of Compound VII) are present at low abundance. […] Exposure time during the HPLC-mass spec analysis is less than 45 seconds, further confirming the rapid hydrolysis of the quaternary ammonium silane upon exposure to water.
# In a second experiment, Compound VII was diluted in water to a final concentration of 10 μg/mL in the sample. The mass spectrum of the sample was recorded at a 30-minute time point and is shown FIG. 3. Compound VII was completely hydrolyzed within the 30-minute time frame according to the following reaction scheme:
# 0.50% of Compound VII was formulated with 2% propylene glycol, 1% HPMC, 0.1% poloxamer 407, 2% PEG, and 94.40% water.
# [2] = Precipitation on addition to hydrogels containing ionic or non-ionic, carboxylic acid group containing ingredients; details: zinc gluconate, sorbitol, glycerin
# Protocol: (§1) 160 mls of distilled water was added to a 250 mL screw-top media bottle. 4 g of Xanthan gum was added slowly under vigorous stirring. The mixture was stirred overnight and the Xanthan gum was fully dissolved, with the mixture homogenous and clear. Zinc gluconate (0.2 g), sorbitol (10 g), glycerin (4 g), and Poloxamer 407 (0.4 g) were added to the mixture and stirred until homogenous and clear. […] At this point the process was stopped.
# as §1, with “bottle. 0.2” for “bottle. 4”, “of carbomer copolymer A” for “of Xanthan gum”, “the carbomer copolymer A” for “the Xanthan gum”
# as §1, with “bottle. 0.2” for “bottle. 4”, “of carbomer copolymer B” for “of Xanthan gum”, “the carbomer copolymer B” for “the Xanthan gum”
# as §1, with “bottle. 0.2” for “bottle. 4”, “of carrageenan” for “of Xanthan gum”, “the carrageenan” for “the Xanthan gum”
# as §1, with “bottle. 0.2” for “bottle. 4”, “of carboxymethylcellulose Sodium” for “of Xanthan gum”, “the Carboxymethylcellulose Sodium” for “the Xanthan gum”
# as §1, with “bottle. 0.2” for “bottle. 4”, “of Sodium Alginate” for “of Xanthan gum”, “the Sodium Alginate” for “the Xanthan gum”
# as §1, with “of HPMC having a viscosity 2600-5600 in H2O (20° C.)” for “of Xanthan gum”, “the HPMC” for “the Xanthan gum”, “and sodium hyaluronate” for “and Poloxamer 407”
# [3] = Dissolution in water and stability of the aqueous solution of the isolated product; details: for dissolution of the product in water: isolated product
smiles,measurement,setting,value
"CCCCCCCCCCCCCCCCCC[N+](C)(C)CCC[Si](OCC(C)O)(OCC(C)O)OCC(C)O.CS(=O)(=O)[O-] (stereo not shown) [Compound VII, N,N-dimethyl-N-(3-(tris(2-hydroxypropoxy)silyl)propyl)octadecan-1-aminium methane sulfonate]",extent of hydrolysis,"[1]; 0.50% formulated with 2% propylene glycol, 1% HPMC, 0.1% poloxamer 407, 2% PEG, 94.40% water",complete hydrolysis
same,time frame of complete hydrolysis,"[1]; diluted in water, 10 μg/mL",≤ 30 min
same,extent of hydrolysis,"[1]; diluted in water, 30-minute time point",complete hydrolysis
same,extent of hydrolysis,"[1]; in propylene glycol diluted with acetonitrile, 10 μg/mL, 0.1% aqueous formic acid mobile phase, exposure less than 45 seconds",Partial hydrolysis
"CCCCCCCCCCCCCCCCCC[N+](C)(C)CCC[Si](OCC(CO)(CO)NCCS(=O)(=O)[O-])(OCC(CO)(CO)NCCS(=O)(=O)O)OCC(CO)(CO)NCCS(=O)(=O)O [Compound XIX, 2-[[1-[[3-[Dimethyl(octadecyl)ammonio]propyl-[3-hydroxy-2-(hydroxymethyl)-2-(2-sulfoethylamino)propoxy]-[3-hydroxy-2-(hydroxymethyl)-2-(2-sulfoethylamino)propoxy]silyl]oxymethyl]-2-hydroxy-1-(hydroxymethyl)ethyl]amino]-ethanesulfonate]",precipitation on addition to the mixture,[2]; HPMC with sodium hyaluronate,immediate precipitation
same,precipitation on addition to the mixture,"[2]; Sodium Alginate as gelling agent, Poloxamer 407",immediate precipitation
same,precipitation on addition to the mixture,"[2]; Xanthan gum as gelling agent, Poloxamer 407",immediate precipitation
same,precipitation on addition to the mixture,"[2]; carbomer copolymer A as gelling agent, Poloxamer 407",immediate precipitation
same,precipitation on addition to the mixture,"[2]; carbomer copolymer B as gelling agent, Poloxamer 407",immediate precipitation
same,precipitation on addition to the mixture,"[2]; carboxymethylcellulose Sodium as gelling agent, Poloxamer 407",immediate precipitation
same,precipitation on addition to the mixture,"[2]; carrageenan as gelling agent, Poloxamer 407",immediate precipitation
same,time a solution in water remains clear,[3]; 1% solution in water,> 5 months
same,dissolution of the fine powder in water,"[3]; water, gentle heating",dissolves quickly in water with gentle heating
"CCCCCCCCCCCCCCCCCC[N+](C)(C)CCC[Si](OCC(C)O)(OCC(C)O)OCC(C)O (stereo not shown) [Example 1, Dimethyl-octadecyl-[3-[tris(2-hydroxypropoxy)silyl]propyl]ammonium chloride]",dissolution of the product in water,[3]; water,dissolved readily in water
"CCCCCCCCCCCCCCCCCC[N+](C)(C)CCC[Si](OCC(C)(CO)C(=O)O)(OCC(C)(CO)C(=O)O)OCC(C)(CO)C(=O)O (stereo not shown) [Example 4, Dimethyl-octadecyl-[3-tris(2-carboxy-3-hydroxy-2-methyl-propoxy)silylpropyl]ammonium chloride]",dissolution of the product in water,[3]; water,dissolved readily in water
"CCCCCCCCCCCCCCCCCC[N+](C)(C)CCC[Si](OCCCO)(OCCCO)OCCCO [Example 5, Dimethyl-octadecyl-[3-[tris(3-hydroxypropoxy)silyl]propyl]ammonium chloride]",dissolution of the product in water,[3]; water,dissolved readily in water
